Here are results for 1 compound from patent publication US20140275234A1, “COMPOSITIONS AND METHODS OF USING CRYSTALLINE FORMS OF WORTMANNIN ANALOGS” (ONCOTHYREON INC., priority 2010, published 2014).

The data set in a line: Crystallization study in anisole, PX-866 quantified in supernatant. The data set is classed as physicochemical. The method, then: 53 mg of PX-866 was placed in a 2 mL flat bottom vial and then added ˜940 μL (18 vol.) of anisole at RT. The supernatant was transferred to another vial and cooled down first to 4° C., and then to −20° C. (PX-866 quantified in aliquots of the supernatant at both temperatures). The resulted solids were dried under a stream of nitrogen and further dried under vacuum at RT for 16 hours, then dried under vacuum at 40° C. for 16 hours. PX-866 concentration in supernatant: RT: 9.9 mg/mL; 4° C.: 7.0 mg/mL; −20° C.: 6.2 mg/mL.

Turning to `C=CCN(/C=C1/C(=O)O[C@H](COC)[C@@]2(C)C1=C(O)C(=O)C1=C2[C@H](OC(C)=O)C[C@]2(C)C(=O)CC[C@@H]12)CC=C` [PX-866, (4S,4aR,5R,6aS,9aR, Z)-1-((diallylamino)methylene)-11-hydroxy-4-(methoxymethyl)-4-a,6a-dimethyl-2,7,10-trioxo-1,2,4,4a,5,6,6a,7,8,9,9a,10-dodecahydroindeno[4,5-h]isochromen-5-yl acetate], the “PX-866 concentration in supernatant” value was found to be 7.0 mg/mL (4° C.), 9.9 mg/mL (RT) and 6.2 mg/mL (−20° C.).
